Converted amounts (≈) assume the structure as drawn.
tested on: Candida albicans; assay: Antifungal activity against Candida albicans ATCC SC5314 by broth microdilution assay; format: functional; conditions: not given

SMILES	MIC [µg/mL]
CCNC(=O)[C@H](Cn1ccnc1)NC(=O)c1nc2ccc(Br)cc2s1	> 64
CCOC(=O)[C@H](Cn1ccnc1)NC(=O)c1nc2ccc(C)cc2s1	2 (≈ 5.58 µM)
CCCOC(=O)[C@H](Cn1ccnc1)NC(=O)c1nc2ccc(C)cc2s1	0.5 (≈ 1.34 µM)
CC(C)COC(=O)[C@H](Cn1ccnc1)NC(=O)c1nc2c(C(F)(F)F)cccc2s1	> 64
Cc1cccc2sc(C(=O)N[C@@H](Cn3ccnc3)C(=O)OCC(C)C)nc12	> 64
CCCOC(=O)[C@H](Cn1ccnc1)NC(=O)c1nc2ccc(Cl)cc2s1	0.5 (≈ 1.27 µM)
CC(C)OC(=O)[C@H](Cn1ccnc1)NC(=O)c1nc2ccc(F)cc2s1	4 (≈ 10.6 µM)
CC(C)COC(=O)[C@H](Cn1ccnc1)NC(=O)c1nc2ccc(Br)cc2s1	0.125 (≈ 0.277 µM)
COC(=O)[C@H](Cn1ccnc1)NC(=O)c1nc2ccc(C)cc2s1	8 (≈ 23.2 µM)

Further compounds by falling MIC, results first:

MIC [µg/mL]	SMILES
0.5 (≈ 1.34 µM)	Cc1ccc2nc(C(=O)N[C@@H](Cn3ccnc3)C(=O)OC(C)C)sc2c1
0.5 (≈ 1.28 µM)	CC(C)COC(=O)[C@H](Cn1ccnc1)NC(=O)c1nc2ccc(F)cc2s1
0.25 (≈ 0.647 µM)	Cc1ccc2nc(C(=O)N[C@@H](Cn3ccnc3)C(=O)OCC(C)C)sc2c1
0.125 (≈ 0.277 µM)	CC(C)COC(=O)[C@@H](Cn1ccnc1)NC(=O)c1nc2ccc(Br)cc2s1
0.125 (≈ 0.307 µM)	CC(C)COC(=O)[C@H](Cn1ccnc1)NC(=O)c1nc2ccc(Cl)cc2s1

tested on: Candida albicans; assay: Antifungal activity against Candida albicans CPCC 400523 by broth microdilution assay; format: functional; conditions: not given

SMILES	MIC [µg/mL]
CCNC(=O)[C@H](Cn1ccnc1)NC(=O)c1nc2ccc(Br)cc2s1	> 64
CCOC(=O)[C@H](Cn1ccnc1)NC(=O)c1nc2ccc(C)cc2s1	> 64
CCCOC(=O)[C@H](Cn1ccnc1)NC(=O)c1nc2ccc(C)cc2s1	4 (≈ 10.7 µM)
CC(C)COC(=O)[C@H](Cn1ccnc1)NC(=O)c1nc2c(C(F)(F)F)cccc2s1	> 64
Cc1cccc2sc(C(=O)N[C@@H](Cn3ccnc3)C(=O)OCC(C)C)nc12	> 64
CCCOC(=O)[C@H](Cn1ccnc1)NC(=O)c1nc2ccc(Cl)cc2s1	2 (≈ 5.09 µM)
CC(C)OC(=O)[C@H](Cn1ccnc1)NC(=O)c1nc2ccc(F)cc2s1	16 (≈ 42.5 µM)
CC(C)COC(=O)[C@H](Cn1ccnc1)NC(=O)c1nc2ccc(Br)cc2s1	0.25 (≈ 0.554 µM)
COC(=O)[C@H](Cn1ccnc1)NC(=O)c1nc2ccc(C)cc2s1	> 64

Results, then the compound that gave them:

MIC [µg/mL]	SMILES
4 (≈ 10.7 µM)	Cc1ccc2nc(C(=O)N[C@@H](Cn3ccnc3)C(=O)OC(C)C)sc2c1
16 (≈ 41 µM)	CC(C)COC(=O)[C@H](Cn1ccnc1)NC(=O)c1nc2ccc(F)cc2s1
2 (≈ 5.17 µM)	Cc1ccc2nc(C(=O)N[C@@H](Cn3ccnc3)C(=O)OCC(C)C)sc2c1
0.25 (≈ 0.554 µM)	CC(C)COC(=O)[C@@H](Cn1ccnc1)NC(=O)c1nc2ccc(Br)cc2s1
2 (≈ 4.92 µM)	CC(C)COC(=O)[C@H](Cn1ccnc1)NC(=O)c1nc2ccc(Cl)cc2s1

tested on: Cryptococcus neoformans; assay: Antifungal activity against Cryptococcus neoformans cgmcc 2.3161 by broth microdilution assay; format: functional; conditions: not given

SMILES	MIC [µg/mL]
CCNC(=O)[C@H](Cn1ccnc1)NC(=O)c1nc2ccc(Br)cc2s1	> 64
CCOC(=O)[C@H](Cn1ccnc1)NC(=O)c1nc2ccc(C)cc2s1	8 (≈ 22.3 µM)
CCCOC(=O)[C@H](Cn1ccnc1)NC(=O)c1nc2ccc(C)cc2s1	2 (≈ 5.37 µM)
CC(C)COC(=O)[C@H](Cn1ccnc1)NC(=O)c1nc2c(C(F)(F)F)cccc2s1	> 64
Cc1cccc2sc(C(=O)N[C@@H](Cn3ccnc3)C(=O)OCC(C)C)nc12	> 64
CCCOC(=O)[C@H](Cn1ccnc1)NC(=O)c1nc2ccc(Cl)cc2s1	2 (≈ 5.09 µM)
CC(C)OC(=O)[C@H](Cn1ccnc1)NC(=O)c1nc2ccc(F)cc2s1	> 64
CC(C)COC(=O)[C@H](Cn1ccnc1)NC(=O)c1nc2ccc(Br)cc2s1	0.5 (≈ 1.11 µM)
COC(=O)[C@H](Cn1ccnc1)NC(=O)c1nc2ccc(C)cc2s1	8 (≈ 23.2 µM)

Next, values leading:

MIC [µg/mL]	SMILES
2 (≈ 5.37 µM)	Cc1ccc2nc(C(=O)N[C@@H](Cn3ccnc3)C(=O)OC(C)C)sc2c1
4 (≈ 10.2 µM)	CC(C)COC(=O)[C@H](Cn1ccnc1)NC(=O)c1nc2ccc(F)cc2s1
0.5 (≈ 1.29 µM)	Cc1ccc2nc(C(=O)N[C@@H](Cn3ccnc3)C(=O)OCC(C)C)sc2c1
0.5 (≈ 1.11 µM)	CC(C)COC(=O)[C@@H](Cn1ccnc1)NC(=O)c1nc2ccc(Br)cc2s1
1 (≈ 2.46 µM)	CC(C)COC(=O)[C@H](Cn1ccnc1)NC(=O)c1nc2ccc(Cl)cc2s1

tested on: Aspergillus fumigatus; assay: Antifungal activity against Aspergillus fumigatus cgmcc 3.7795 by broth microdilution assay; format: functional; conditions: not given

SMILES	MIC [µg/mL]
CCNC(=O)[C@H](Cn1ccnc1)NC(=O)c1nc2ccc(Br)cc2s1	> 64
CCOC(=O)[C@H](Cn1ccnc1)NC(=O)c1nc2ccc(C)cc2s1	> 64
CCCOC(=O)[C@H](Cn1ccnc1)NC(=O)c1nc2ccc(C)cc2s1	> 64
CC(C)COC(=O)[C@H](Cn1ccnc1)NC(=O)c1nc2c(C(F)(F)F)cccc2s1	> 64
Cc1cccc2sc(C(=O)N[C@@H](Cn3ccnc3)C(=O)OCC(C)C)nc12	> 64
CCCOC(=O)[C@H](Cn1ccnc1)NC(=O)c1nc2ccc(Cl)cc2s1	> 64
CC(C)OC(=O)[C@H](Cn1ccnc1)NC(=O)c1nc2ccc(F)cc2s1	> 64
CC(C)COC(=O)[C@H](Cn1ccnc1)NC(=O)c1nc2ccc(Br)cc2s1	> 64
COC(=O)[C@H](Cn1ccnc1)NC(=O)c1nc2ccc(C)cc2s1	> 64

Next, values leading:

MIC [µg/mL]	SMILES
> 64	Cc1ccc2nc(C(=O)N[C@@H](Cn3ccnc3)C(=O)OC(C)C)sc2c1
> 64	CC(C)COC(=O)[C@H](Cn1ccnc1)NC(=O)c1nc2ccc(F)cc2s1
> 64	Cc1ccc2nc(C(=O)N[C@@H](Cn3ccnc3)C(=O)OCC(C)C)sc2c1
> 64	CC(C)COC(=O)[C@@H](Cn1ccnc1)NC(=O)c1nc2ccc(Br)cc2s1
> 64	CC(C)COC(=O)[C@H](Cn1ccnc1)NC(=O)c1nc2ccc(Cl)cc2s1

tested on: Candida tropicalis; assay: Antifungal activity against Candida tropicalis cgmcc 2.3739 by broth microdilution assay; format: functional; conditions: not given

SMILES	MIC [µg/mL]
CCNC(=O)[C@H](Cn1ccnc1)NC(=O)c1nc2ccc(Br)cc2s1	> 64
CCOC(=O)[C@H](Cn1ccnc1)NC(=O)c1nc2ccc(C)cc2s1	4 (≈ 11.2 µM)
CCCOC(=O)[C@H](Cn1ccnc1)NC(=O)c1nc2ccc(C)cc2s1	0.5 (≈ 1.34 µM)
CC(C)COC(=O)[C@H](Cn1ccnc1)NC(=O)c1nc2c(C(F)(F)F)cccc2s1	> 64
Cc1cccc2sc(C(=O)N[C@@H](Cn3ccnc3)C(=O)OCC(C)C)nc12	> 64
CCCOC(=O)[C@H](Cn1ccnc1)NC(=O)c1nc2ccc(Cl)cc2s1	1 (≈ 2.55 µM)
CC(C)OC(=O)[C@H](Cn1ccnc1)NC(=O)c1nc2ccc(F)cc2s1	16 (≈ 42.5 µM)
CC(C)COC(=O)[C@H](Cn1ccnc1)NC(=O)c1nc2ccc(Br)cc2s1	0.25 (≈ 0.554 µM)
COC(=O)[C@H](Cn1ccnc1)NC(=O)c1nc2ccc(C)cc2s1	16 (≈ 46.5 µM)

Now from value to compound:

MIC [µg/mL]	SMILES
1 (≈ 2.68 µM)	Cc1ccc2nc(C(=O)N[C@@H](Cn3ccnc3)C(=O)OC(C)C)sc2c1
8 (≈ 20.5 µM)	CC(C)COC(=O)[C@H](Cn1ccnc1)NC(=O)c1nc2ccc(F)cc2s1
0.5 (≈ 1.29 µM)	Cc1ccc2nc(C(=O)N[C@@H](Cn3ccnc3)C(=O)OCC(C)C)sc2c1
0.125 (≈ 0.277 µM)	CC(C)COC(=O)[C@@H](Cn1ccnc1)NC(=O)c1nc2ccc(Br)cc2s1
0.25 (≈ 0.614 µM)	CC(C)COC(=O)[C@H](Cn1ccnc1)NC(=O)c1nc2ccc(Cl)cc2s1

tested on: Candida albicans; assay: Antifungal activity against fluconazole-resistant Candida albicans 100 by broth microdilution assay; format: functional; conditions: not given

SMILES	MIC [µg/mL]
CC(C)COC(=O)[C@H](Cn1ccnc1)NC(=O)c1nc2ccc(Br)cc2s1	16 (≈ 35.4 µM)

tested on: Candida albicans; assay: Antifungal activity against fluconazole-resistant Candida albicans 103 by broth microdilution assay; format: functional; conditions: not given

SMILES	MIC [µg/mL]
CC(C)COC(=O)[C@H](Cn1ccnc1)NC(=O)c1nc2ccc(Br)cc2s1	8 (≈ 17.7 µM)

target: T1, Lanosterol 14-alpha demethylase (Candida albicans (strain SC5314 / ATCC MYA-2876) (Yeast), UniProt P10613); assay: Inhibition of CYP51 in Candida albicans ATCC SC5314 assessed as ergosterol composition of the total sterol fraction in membrane at 8 ug/ml after 16 hrs by GC-MS analysis (reference value: 89.6%); parameters: scale not given: the % may be the effect or the level left; conditions: candida albicans sc5314, 16 h
T1 sequence (P10613 whole entry): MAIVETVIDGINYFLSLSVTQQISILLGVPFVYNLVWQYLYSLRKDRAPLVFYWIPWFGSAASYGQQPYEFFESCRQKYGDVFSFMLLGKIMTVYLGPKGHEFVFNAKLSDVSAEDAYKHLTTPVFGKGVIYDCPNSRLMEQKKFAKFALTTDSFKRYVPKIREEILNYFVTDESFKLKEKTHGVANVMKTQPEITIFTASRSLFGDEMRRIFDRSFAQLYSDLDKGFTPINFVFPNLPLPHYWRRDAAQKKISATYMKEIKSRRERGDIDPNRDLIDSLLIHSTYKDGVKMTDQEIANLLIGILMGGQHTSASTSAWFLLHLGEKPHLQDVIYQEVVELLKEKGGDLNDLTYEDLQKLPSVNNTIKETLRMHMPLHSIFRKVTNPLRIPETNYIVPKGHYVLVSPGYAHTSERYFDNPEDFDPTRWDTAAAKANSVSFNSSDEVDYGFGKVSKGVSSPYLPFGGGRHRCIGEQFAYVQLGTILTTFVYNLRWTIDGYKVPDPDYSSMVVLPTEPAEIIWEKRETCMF

SMILES	Activity [%]
CC(C)COC(=O)[C@H](Cn1ccnc1)NC(=O)c1nc2ccc(Br)cc2s1	2.7

target: T1, Lanosterol 14-alpha demethylase; assay: Inhibition of CYP51 in Candida albicans ATCC SC5314 assessed as obtusifoliol composition of the total sterol fraction in membrane at 8 ug/ml after 16 hrs by GC-MS analysis relative to control; parameters: scale not given: the % may be the effect or the level left; conditions: candida albicans sc5314, 16 h

SMILES	Activity [%]
CC(C)COC(=O)[C@H](Cn1ccnc1)NC(=O)c1nc2ccc(Br)cc2s1	6.4

target: T1, Lanosterol 14-alpha demethylase; assay: Inhibition of CYP51 in Candida albicans ATCC SC5314 assessed as lanosterol composition of the total sterol fraction in membrane at 8 ug/ml after 16 hrs by GC-MS analysis (reference value: 2.9%); parameters: scale not given: the % may be the effect or the level left; conditions: candida albicans sc5314, 16 h

SMILES	Activity [%]
CC(C)COC(=O)[C@H](Cn1ccnc1)NC(=O)c1nc2ccc(Br)cc2s1	18.8

target: T1, Lanosterol 14-alpha demethylase; assay: Inhibition of CYP51 in Candida albicans ATCC SC5314 assessed as eburicol composition of the total sterol fraction in membrane at 8 ug/ml after 16 hrs by GC-MS analysis relative to control; parameters: scale not given: the % may be the effect or the level left; conditions: candida albicans sc5314, 16 h

SMILES	Activity [%]
CC(C)COC(=O)[C@H](Cn1ccnc1)NC(=O)c1nc2ccc(Br)cc2s1	63.4

target: T1, Lanosterol 14-alpha demethylase; assay: Inhibition of CYP51 in Candida albicans ATCC SC5314 assessed as sterol composition in membrane at 8 ug/ml after 16 hrs by GC-MS analysis (reference value: 7.5%); parameters: scale not given: the % may be the effect or the level left; conditions: candida albicans sc5314, 16 h

SMILES	Activity [%]
CC(C)COC(=O)[C@H](Cn1ccnc1)NC(=O)c1nc2ccc(Br)cc2s1	8.6
